Here are results for 14 compounds from ChEMBL document CHEMBL3259571, “Diacylglycerol lactones targeting the structural features that distinguish the atypical C1 domains of protein kinase C ζ and ι from typical C1 domains” (J Med Chem, 2014).

pKd, pKi: −log10 of the molar value.

Assay [1] has as its target Protein kinase C delta type (Mus musculus, UniProt P28867). Nature of the assay: Displacement of [20-3H]PDBu from GST-tagged full-length mouse PKC-delta C1B domain expressed in Escherichia coli after 2 to 30 mins by polyethylene glycol precipitation assay in presence of phosphatidylserine.
Assay [2] in a line: Displacement of [20-3H]PDBu from GST-tagged mouse PKC-delta C1B domain N7R mutant expressed in Escherichia coli after 2 to 30 mins by polyethylene glycol precipitation assay in presence of phosphatidylserine.
A short description of assay [3]: Displacement of [20-3H]PDBu from GST-tagged mouse PKC-delta C1B domain S10R mutant expressed in Escherichia coli after 2 to 30 mins by polyethylene glycol precipitation assay in presence of phosphatidylserine.
Assay [4] in a line: Displacement of [20-3H]PDBu from GST-tagged mouse PKC-delta C1B domain L20R mutant expressed in Escherichia coli after 2 to 30 mins by polyethylene glycol precipitation assay in presence of phosphatidylserine.
A short description of assay [5]: Displacement of [20-3H]PDBu from GST-tagged mouse PKC-delta C1B domain N7R/P11R mutant expressed in Escherichia coli after 2 to 30 mins by polyethylene glycol precipitation assay in presence of phosphatidylserine.
A short description of assay [6]: Displacement of [20-3H]PDBu from GST-tagged mouse PKC-delta C1B domain N7R/L20R mutant expressed in Escherichia coli after 2 to 30 mins by polyethylene glycol precipitation assay in presence of phosphatidylserine.
Assay [7] is described as follows: Displacement of [20-3H]PDBu from GST-tagged mouse PKC-delta C1B domain N7R/S10R/P11R mutant expressed in Escherichia coli after 2 to 30 mins by polyethylene glycol precipitation assay in presence of phosphatidylserine.
Assay [8] can be described thus: Displacement of [20-3H]PDBu from GST-tagged mouse PKC-delta C1B domain N7R/S10R/L20R mutant expressed in Escherichia coli after 2 to 30 mins by polyethylene glycol precipitation assay in presence of phosphatidylserine.
Assay [9] is described as follows: Displacement of [20-3H]PDBu from GST-tagged mouse PKC-delta C1B domain P11R mutant expressed in Escherichia coli after 2 to 30 mins by polyethylene glycol precipitation assay in presence of phosphatidylserine.
Assay [10] is filed under the species Mus musculus. Nature of the assay: Selectivity ratio of Ki for GST-tagged mouse PKC-delta C1B domain N7R mutant to Kd for GST-tagged full-length mouse PKC-delta C1B domain.
Assay [11] is filed under the species Mus musculus. Nature of the assay: Selectivity ratio of Ki for GST-tagged mouse PKC-delta C1B domain S10R mutant to Kd for GST-tagged full-length mouse PKC-delta C1B domain.
The species entered for assay [12] is Mus musculus. Nature of the assay: Selectivity ratio of Ki for GST-tagged mouse PKC-delta C1B domain P11R mutant to Kd for GST-tagged full-length mouse PKC-delta C1B domain.
For assay [13], the species on record is Mus musculus. The assay is described as follows: Selectivity ratio of Ki for GST-tagged mouse PKC-delta C1B domain L20R mutant to Kd for GST-tagged full-length mouse PKC-delta C1B domain.
Assay [14] is filed under the species Mus musculus. Nature of the assay: Selectivity ratio of Ki for GST-tagged mouse PKC-delta C1B domain N7R/P11R mutant to Kd for GST-tagged full-length mouse PKC-delta C1B domain.
Assay [15] is filed under the species Mus musculus. Nature of the assay: Selectivity ratio of Ki for GST-tagged mouse PKC-delta C1B domain N7R/L20R mutant to Kd for GST-tagged full-length mouse PKC-delta C1B domain.
The species entered for assay [16] is Mus musculus. Nature of the assay: Selectivity ratio of Ki for GST-tagged mouse PKC-delta C1B domain N7R/S10R/P11R mutant to Kd for GST-tagged full-length mouse PKC-delta C1B domain.
For assay [17], the species on record is Mus musculus. The assay is described as follows: Selectivity ratio of Ki for GST-tagged mouse PKC-delta C1B domain N7R/S10R/L20R mutant to Kd for GST-tagged full-length mouse PKC-delta C1B domain.
Assay [18] is filed under the species Mus musculus. Nature of the assay: Selectivity ratio of Kd for GST-tagged full-length mouse PKC-delta C1B domain to Ki for GST-tagged mouse PKC-delta C1B domain P11R mutant.

Chain of Protein kinase C delta type (P28867 whole entry, the tested form may be a part): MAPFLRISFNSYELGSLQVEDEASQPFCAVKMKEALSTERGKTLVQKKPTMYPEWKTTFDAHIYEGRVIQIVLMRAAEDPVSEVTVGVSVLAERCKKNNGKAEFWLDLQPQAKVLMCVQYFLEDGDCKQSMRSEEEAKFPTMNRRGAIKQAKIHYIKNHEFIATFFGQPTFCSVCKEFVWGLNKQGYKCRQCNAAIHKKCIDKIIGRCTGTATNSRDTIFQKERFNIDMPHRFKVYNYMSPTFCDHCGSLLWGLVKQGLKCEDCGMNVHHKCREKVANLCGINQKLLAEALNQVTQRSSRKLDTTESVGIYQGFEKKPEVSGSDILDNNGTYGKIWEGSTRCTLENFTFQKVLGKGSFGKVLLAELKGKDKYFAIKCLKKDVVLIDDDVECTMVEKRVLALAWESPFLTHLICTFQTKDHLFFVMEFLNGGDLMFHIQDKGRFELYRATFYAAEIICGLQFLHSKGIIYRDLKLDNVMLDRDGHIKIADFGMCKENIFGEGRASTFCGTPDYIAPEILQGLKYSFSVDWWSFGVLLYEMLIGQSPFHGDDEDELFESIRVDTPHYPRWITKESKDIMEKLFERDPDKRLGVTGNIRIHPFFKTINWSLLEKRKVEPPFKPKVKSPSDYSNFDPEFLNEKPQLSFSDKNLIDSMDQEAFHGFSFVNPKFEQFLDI

For the compound `CCCC(=O)O[C@@H]1[C@@H](C)[C@@]2(O)[C@@H](C=C(CO)C[C@]3(O)C(=O)C(C)=C[C@@H]23)[C@@H]2C(C)(C)[C@]12OC(=O)CCC`, the pKd in assay [1] was 9.64. Moreover, the pKi is 8.93 in [2]; 9.49 in assay [3]; 8.10 in assay [4]; 7.47 in assay [5]; 6.32 in [6]; 7.71 in assay [7]. Further, the pKi in [8] is 5.87.
Take `CC(C)C(CC(=O)OCC1(CO)C/C(=C\c2ccc(C(=O)O)cc2)C(=O)O1)C(C)C` (stereo not drawn): the pKd in assay [1] is 6.25. Further, the pKi in [2] is 6.10; in assay [3], 6.09; in [9], 6.15; in [4], 5.16; in [5] it was 5.42; in assay [6], 3.93. The Selectivity ratio in the assay listed under Mus musculus [10] amounted to 1.41; in the assay filed under Mus musculus [11] it was 1.45; in the assay listed under Mus musculus [12], 1.27; in the assay filed under Mus musculus [13] it was 12.4; in the assay listed under Mus musculus [14], 6.79; in the assay listed under Mus musculus [15], 209.
Take `CC(C)CC(C/C=C1\CC(CO)(COC(=O)C(C)(CO)CO)OC1=O)CC(C)C` (stereo not drawn): in assay [1], the pKd was 6.11. In addition, the pKi in assay [2] was 6.09; in assay [3], 5.95; in [9] it was 5.69; in assay [4], 6.09; in [5], 4.62; in assay [6], 5.12. Also, the pKi in assay [7] is 4.33; in assay [8], 5.11. For the same compound, the Selectivity ratio in the assay filed under Mus musculus [10] amounted to 1.04; in the assay filed under Mus musculus [11], 1.44; in the assay filed under Mus musculus [12], 2.61; in the assay filed under Mus musculus [13] it was 1.04; in the assay listed under Mus musculus [14], 30.7; in the assay listed under Mus musculus [15] it was 9.83. Further, the Selectivity ratio in the assay listed under Mus musculus [16] was found to be 60.5; in the assay filed under Mus musculus [17], 10.1.
On to `CC(C)(C)C(=O)OCC1(CO)C/C(=C\c2ccc(C(=O)O)cc2)C(=O)O1` (stereo not drawn), for which the pKd in assay [1] was 5.97. Besides, the pKi in [2] is 6.06; in assay [3], 6.18; in assay [9], 6.00; in assay [4], 5.21; in assay [5], 5.43; in assay [6], 4.08. Also, the Selectivity ratio in the assay filed under Mus musculus [10] amounted to 0.82; in the assay listed under Mus musculus [11], 0.62; in the assay listed under Mus musculus [12] it was 0.93; in the assay listed under Mus musculus [13], 5.74; in the assay filed under Mus musculus [14], 3.49; in the assay listed under Mus musculus [15], 78.
As to `CC(C)C(CC(=O)OCC1(CO)C/C(=C\c2ccc(O)cc2)C(=O)O1)C(C)C` (stereo not drawn), the pKd in [1] was 8.53. Besides, the pKi in [2] was 8.70; in [3], 8.93; in assay [9], 8.83; in [4], 8.03. Also, the Selectivity ratio turned out to be 0.67 in the assay filed under Mus musculus [10], 0.4 in the assay listed under Mus musculus [11], 0.5 in the assay filed under Mus musculus [12] and 3.2 in the assay filed under Mus musculus [13].
Regarding `CC(C)C(CC(=O)OCC1(CO)C/C(=C\c2ccccc2O)C(=O)O1)C(C)C` (stereo not drawn), the pKd in [1] was 8.53. The pKi in [2] was 8.48; in assay [3] it was 8.63; in assay [9] it was 7.98; in assay [4], 7.85; in [5], 7.43; in assay [6] it was 6.62. Also, the pKi in assay [7] is 7.20; in [8], 6.18. Moreover, the Selectivity ratio in the assay filed under Mus musculus [10] worked out at 1.12; in the assay listed under Mus musculus [11], 0.79; in the assay listed under Mus musculus [12], 3.53; in the assay filed under Mus musculus [13], 4.75; in the assay filed under Mus musculus [14] it was 12.5; in the assay filed under Mus musculus [15] it was 81. The Selectivity ratio in the assay listed under Mus musculus [16] came to 21.3; in the assay filed under Mus musculus [17] it was 224.
In the case of `CC(C)CC(CC(=O)OCC1(CO)C/C(=C\c2ccc(C(=O)O)cc2)C(=O)O1)CC(C)C` (stereo not drawn), in [1], the pKd is 7.02. Also, the pKi in assay [2] is 6.92; in assay [3], 7.03; in assay [9] it was 6.92; in [4], 6.13. The Selectivity ratio in the assay filed under Mus musculus [10] is 1.25; in the assay listed under Mus musculus [11], 0.98; in the assay filed under Mus musculus [12], 1.25; in the assay filed under Mus musculus [13] it was 7.7.
Consider `CC(C)C(CC(=O)OCC1(CO)C/C(=C/c2ccc(C(=O)O)cc2)C(=O)O1)C(C)C` (stereo not drawn), for which the pKd in [1] was 6.06. Moreover, the pKi in assay [2] is 6.33; in [3] it was 6.30; in [9], 6.03; in [4], 5.55; in assay [5], 5.55; in assay [6], 4.28. The Selectivity ratio in the assay listed under Mus musculus [10] came out at 0.55; in the assay listed under Mus musculus [11] it was 0.57; in the assay filed under Mus musculus [12], 1.09; in the assay listed under Mus musculus [13] it was 3.25; in the assay filed under Mus musculus [14] it was 3.25; in the assay filed under Mus musculus [15], 60.
`CC(C)CC(CC(=O)OCC1(CO)C/C(=C\c2cccc(C(C(=O)OC(C)(C)C)C(=O)OC(C)(C)C)c2)C(=O)O1)CC(C)C` (stereo not drawn): the pKd in assay [1] was 9.30. The pKi in [2] was 9.22; in assay [3] it was 9.22; in assay [9] it was 9.00; in assay [4], 8.06. In addition, the Selectivity ratio came to 1.2 in the assay listed under Mus musculus [10], 1.2 in the assay listed under Mus musculus [11], 2 in the assay filed under Mus musculus [12] and 17.6 in the assay listed under Mus musculus [13].
As to `CC(C)CC(CC(=O)OCC1(CO)C/C(=C\c2ccccc2C(C(=O)OC(C)(C)C)C(=O)OC(C)(C)C)C(=O)O1)CC(C)C` (stereo not drawn), the negative-log Kd (pKd) in assay [1] was 9.00. In addition, the pKi was 9.05 in assay [2], 8.82 in assay [3], 8.77 in assay [9] and 7.76 in assay [4]. In addition, the Selectivity ratio in the assay listed under Mus musculus [10] is 0.9; in the assay filed under Mus musculus [11], 1.5; in the assay filed under Mus musculus [12], 1.7; in the assay filed under Mus musculus [13], 17.3.
Take `CC(C)CC(CC(=O)OCC1(CO)C/C(=C\c2cccc(C(=O)O)c2)C(=O)O1)CC(C)C` (stereo not drawn): in assay [1], the pKd was 6.52. Besides, the pKi in assay [2] was 6.55; in assay [3], 6.33; in assay [9], 7.00; in assay [4] it was 5.80. The Selectivity ratio worked out at 0.94 in the assay listed under Mus musculus [10]; 1.56 in the assay listed under Mus musculus [11]; 0.33 in the assay filed under Mus musculus [12]; 5.33 in the assay filed under Mus musculus [13]; 3 in the assay filed under Mus musculus [18].
As to `CC(C)CC(CC(=O)OCC1(CO)C/C(=C\c2ccc(C(C(=O)OC(C)(C)C)C(=O)OC(C)(C)C)cc2)C(=O)O1)CC(C)C` (stereo not drawn), the pKd in assay [1] is 9.22. In addition, the pKi in assay [2] is 9.15; in assay [3] it was 9.22; in [9], 8.92; in [4], 7.98. For the same compound, the Selectivity ratio stood at 1.17 in the assay filed under Mus musculus [10], 1 in the assay listed under Mus musculus [11], 2 in the assay listed under Mus musculus [12] and 17.5 in the assay listed under Mus musculus [13].
Regarding `CC(C)(C)C(=O)OCC1(CO)C/C(=C\c2cccc(C(=O)O)c2)C(=O)O1` (stereo not drawn), the pKd in assay [1] was 5.92. Besides, the pKi in assay [2] was 5.76; in [3] it was 5.75; in assay [9] it was 5.47; in [4], 5.26; in assay [5], 4.80; in [6], 3.98. Further, the Selectivity ratio is 1.44 in the assay listed under Mus musculus [10]; 1.46 in the assay listed under Mus musculus [11]; 2.79 in the assay filed under Mus musculus [12]; 4.57 in the assay listed under Mus musculus [13]; 13.2 in the assay listed under Mus musculus [14]; 87 in the assay filed under Mus musculus [15].
For `CC(C)C(CC(=O)OCC1(CO)C/C(=C\c2cccc(O)c2)C(=O)O1)C(C)C` (stereo not drawn), the pKd in assay [1] was 8.61. Also, the pKi is 8.61 in assay [2], 8.68 in assay [3], 8.63 in assay [9] and 7.71 in assay [4]. The Selectivity ratio in the assay listed under Mus musculus [10] was found to be 1.01; in the assay listed under Mus musculus [11] it was 0.85; in the assay listed under Mus musculus [12], 0.94; in the assay listed under Mus musculus [13], 7.87.

As a reminder, the pKd is −log10 of the Kd, conventionally taken in molar units. One may read the pKi as the negative decadic logarithm of the Ki, by convention in mol/L.
